Legend:
[1] = biological target: T1, PRAK (Homo sapiens, UniProt Q8IW41); experiment: PRAK radiometric kinase assay; assay type: biochemical; conditions: MMI-0100 100 μM; remaining kinase activity
T1 construct: purchased Millipore (KinaseProfiler service)
T1 sequence (Q8IW41 1-473): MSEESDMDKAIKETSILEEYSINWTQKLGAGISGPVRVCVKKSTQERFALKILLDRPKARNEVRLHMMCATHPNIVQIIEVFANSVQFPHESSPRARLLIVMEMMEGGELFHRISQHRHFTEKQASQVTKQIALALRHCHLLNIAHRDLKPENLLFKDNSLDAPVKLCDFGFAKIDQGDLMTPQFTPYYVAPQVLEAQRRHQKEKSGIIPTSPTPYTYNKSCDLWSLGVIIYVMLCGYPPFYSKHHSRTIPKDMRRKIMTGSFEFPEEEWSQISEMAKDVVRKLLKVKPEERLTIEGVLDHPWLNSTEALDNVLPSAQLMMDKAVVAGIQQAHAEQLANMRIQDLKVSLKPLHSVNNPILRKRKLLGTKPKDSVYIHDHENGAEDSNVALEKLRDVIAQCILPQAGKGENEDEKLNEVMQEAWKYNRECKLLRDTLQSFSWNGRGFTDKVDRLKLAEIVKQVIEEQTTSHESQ
Text: A commercial radiometric assay service was used to test the specificity and potency of MMI-0100 ([…]; SEQ ID NO: 1) by measuring its half maximal inhibitory concentrations (IC50). This quantitative assay measures how much MK2 inhibitor (MMI-0100; […] (SEQ ID NO: 1)) is needed to inhibit 50% of a given biological process or component of a process (i.e., an enzyme, cell, or cell receptor). Specifically, in these assays, a positively charged substrate is phosphorylated with a radiolabeled phosphate group from an ATP if the kinase is not inhibited by an inhibitor peptide. The positively charged substrate then is attracted to a negatively charged filter membrane, quantified with a scintillation counter, and compared to a 100% activity control. ATP concentrations within 15 μM of the apparent Km for ATP were chosen since an ATP concentration near the Km may allow for the kinases to have the same relative amount of phosphorylation activity. The individual conditions for each radiometric assay are as follows. […]
IC50 values for inhibitor peptides were determined using Millipore's IC50 Profiler Express service. […]

[2] = system: human coronary artery endothelial cells (HCAEC); experiment: TNF-α-induced IL-6 and IL-8 expression in HCAEC (ELISA); assay type: cell-based; conditions: 0.5 mM MMI-0100, 24 hours after 6 hour TNF-α
Experimental: Primary human coronary artery endothelial cells (HCAEC) were cultured and seeded onto a 96-well plate, using methods described in the MTS proliferation assay above. Cells were again stimulated with 20 ng/ml of TNF-α for 6 hours and then treated with MMI-0100 (SEQ ID NO: 1) for approximately 24 hours. Supernatants were then collected and analyzed for drug effect on inflammatory cytokines.
IL-6 (Cat #: 900-K16; Lot #: 0909016) and IL-8 (Cat #: 900-K18; Lot #: 0209018) ELISA kits (Peprotech; Rocky Hill, N.J.) were used to measure levels of these cytokines from HCAEC supernatants following treatment with MMI-0100 ([…]; SEQ ID NO: 1). The Human IL-6 ELISA development kit contains the key components required for the quantitative measurement of natural and/or recombinant hIL-6 in a sandwich ELISA format within the range of 32-2000 pg/ml. Human IL-8 ELISA development kit contains the key components required for the quantitative measurement of natural and/or recombinant hIL-8 in a sandwich ELISA format within the range of 16-1000 pg/ml.
Briefly, 10 μl of supernatant was diluted with 90 μl of diluents; 3 replicates of each sample were used. Data were collected at 405 nm with correction at 650 nm on a plate reader. Each plate was monitored for 1 hour with readings taken every 5 minutes. Concentrations of IL-6 and IL-8 in test samples were determined by extrapolating from a standard curve. […]

With YARAAARQARAKALARQLGVAA [MMI-0100] the “Percent Activity, PRAK” value [1] was 100%, the “TNF-α-induced IL-6 expression” value [2] was “reduced the level of TNF-α-induced IL-6 expression to that of the untreated control” and the “TNF-α-induced IL-8 expression” value [2] was “no effect”.

Reference: US20130115256A1, “METHODS FOR TREATING OR PREVENTING VASCULAR GRAFT FAILURE” (priority 2010, published 2013)
